According to PubChem BioAssay (NCI):
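Method: 48-hour compound exposure of cells in 96-well plates, five concentrations, linear interpolation of endpoints. Here, GI50 denotes the concentration required for 50% inhibition of growth. TGI marks complete inhibition of growth.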

Tests used:
Experiment in all cases: NCI-60 cell line screen, 48 h
HCT-15 colon = test system: HCT-15 colon
U251 CNS = test system: U251 CNS
HL-60(TB) leukemia = test system: HL-60(TB) leukemia
SN12C renal = test system: SN12C renal
SW-620 colon = test system: SW-620 colon
EKVX NSCLC = test system: EKVX NSCLC
HCC-2998 colon = test system: HCC-2998 colon
MALME-3M melanoma = test system: MALME-3M melanoma
NCI/ADR-RES ovarian = test system: NCI/ADR-RES ovarian
NCI-H460 lung = test system: NCI-H460 lung

SMILES	TGI (HCT-15 colon) [µM]	TGI (U251 CNS) [µM]	TGI (HL-60(TB) leukemia) [µM]	TGI (SN12C renal) [µM]	TGI (SW-620 colon) [µM]	TGI (EKVX NSCLC) [µM]	TGI (HCC-2998 colon) [µM]	TGI (MALME-3M melanoma) [µM]	TGI (NCI/ADR-RES ovarian) [µM]	TGI (NCI-H460 lung) [µM]	GI50 (HCT-15 colon) [µM]	GI50 (HL-60(TB) leukemia) [µM]	GI50 (SN12C renal) [µM]	GI50 (SW-620 colon) [µM]	GI50 (EKVX NSCLC) [µM]	GI50 (HCC-2998 colon) [µM]	GI50 (MALME-3M melanoma) [µM]	GI50 (NCI/ADR-RES ovarian) [µM]	GI50 (NCI-H460 lung) [µM]
Cc1ccc2cccc(-c3cccc4ccccc34)c2n1	91.1	29.9	16.3	> 100	> 100	84.9	29.1	> 100	> 100	89	–	–	–	–	–	–	–	–	–
CN1CSC(=S)N(c2cccc(C(F)(F)F)c2)C1	38	> 100	59	> 100	> 100	67.7	32.9	35.2	73.4	42.6	–	–	–	–	–	–	–	–	–
COc1ccc(N=Nc2c(-c3c(OC)cc4occc4c3OC)[nH]c(=O)c(C#N)c2C)cc1	> 100	> 100	> 100	> 100	> 100	> 100	> 100	> 100	> 100	> 100	–	–	–	–	–	–	–	–	–
CSCC[C@@H](NC(=O)[C@H](CC(C)C)NC(=O)C(Cc1cnc[nH]1)NC(=O)CNC(=O)[C@@H](NC(=O)[C@H](C)NC(=O)[C@H](Cc1c[nH]c2ccccc12)NC(=O)[C@H](CCC(N)=O)NC(=O)[C@@H](N)CC(N)=O)C(C)C)C(N)=O (some centres undefined)	> 100	> 100	> 100	> 100	> 100	> 100	> 100	> 100	> 100	> 100	–	–	–	–	–	–	–	–	–
Cc1nc2ccc(Cl)cc2c(-n2ccnc2)c1CCn1ccnc1	> 100	> 100	62.7	> 100	> 100	–	> 100	97	6.03	> 100	–	–	–	–	–	–	–	–	–
COC(=O)/C=C(\C)CC/C=C(\C)CCC1OC1(C)C (centres undefined)	21.9	22.5	6.6	20.8	28.4	24.3	22.8	29.1	28	24.2	–	–	–	–	–	–	–	–	–
CN(CCN1CCCC1)C1CCc2cc(Cl)c(Cl)cc2C1 (centres undefined)	26.5	32.6	37.4	30.9	89	47.6	18.2	33.6	28	31.5	–	–	–	–	–	–	–	–	–
CC(=O)c1ccc(Oc2c3ccccc3nc3ccccc23)cc1	17.5	25.9	0.463	16	20.5	35.1	24	27.2	30.4	31.9	–	–	–	–	–	–	–	–	–
OCc1ccc2c(c1)CC1(C2)Cc2cc3c(cc2C1O)CCC3 (centres undefined)	> 44.2	20.6	> 23.4	23.8	24	40.1	> 45.3	19.2	12.3	17.1	–	–	–	–	–	–	–	–	–
COC(=O)/C=C(/C=C1/C(C#N)=C(N)N(c2ccc(Cl)cc2)C1(C)/C(=C\C(=O)OC)C(=O)OC)C(=O)OC (centres undefined)	50.2	60.2	> 100	37.6	30.8	> 100	39.2	58.8	36.9	46.3	–	–	–	–	–	–	–	–	–
Cn1c2ccccc2n2c3ncccc3c(=O)c(C#N)c12	> 53.8	34	> 100	> 100	> 100	> 100	> 100	> 100	> 100	> 40.7	–	–	–	–	–	–	–	–	–
CC(=O)Nc1nc(Cl)cc(NCC2(CO)CCC2)n1	> 100	> 100	> 100	> 100	> 100	> 100	> 100	> 100	> 100	> 100	–	–	–	–	–	–	–	–	–
O=C(CC(NC(=O)C(F)(F)F)C(=O)O)OCc1ccccc1 (centres undefined)	> 100	> 100	> 100	> 100	> 100	> 100	> 100	> 100	> 100	> 100	–	–	–	–	–	–	–	–	–
O=C(COc1ccc(OCC(=O)N/N=C/c2ccc(-c3ccc(Cl)cc3Cl)o2)c(Cl)c1)N/N=C/c1ccc(-c2ccc(Cl)cc2Cl)o1	> 100	> 100	70.6	> 100	> 100	89.5	> 100	> 100	> 100	> 100	–	–	–	–	–	–	–	–	–
N#Cc1c(-c2ccc([N+](=O)[O-])cc2)cc(-c2ccc(Nc3ccnc4cc(Cl)ccc34)cc2)[nH]c1=O	> 100	> 100	> 100	–	> 100	> 100	> 100	> 100	> 100	> 100	–	–	–	–	–	–	–	–	–
NC1=CC(=O)c2c(O)ccc(O)c2C1=O	> 56.1	33.9	6.83	31.5	15.2	36.2	24.2	7.08	68.2	25.2	–	–	–	–	–	–	–	–	–
O=c1ccc2ccc(S)cc2o1	> 100	> 100	> 100	> 100	> 100	> 100	> 100	> 100	> 100	> 100	–	–	–	–	–	–	–	–	–
c1ccc(-c2c(-c3ccccc3)[n+](Cc3ccc4ccccc4c3)c(-c3ccc(-c4nc5ccccc5s4)cc3)n2Cc2ccc3ccccc3c2)cc1	1.13	–	0.471	1.04	0.764	1.19	1.01	0.204	2.61	1.11	0.335	0.149	0.218	0.14	0.187	0.244	0.0536	1.07	0.231
O=c1c(F)cn2c(=O)n1CCCCCCCn1c(=O)c(F)cn(c1=O)CCCCCCC2	> 100	> 100	> 100	> 100	> 100	> 100	> 100	88.8	> 100	> 100	–	–	–	–	–	–	–	–	–
COc1ccc2ccc3oc(=O)c(C)cc3c2c1	–	> 100	> 100	> 100	> 100	> 100	> 100	> 100	> 100	> 100	–	–	–	–	–	–	–	–	–
O=C(CCc1cc(O)cc(O)c1)NCCc1cc(OCc2ccccc2)cc(OCc2ccccc2)c1	29.8	> 100	12.2	35.9	53.3	22.6	35	–	55.2	14.4	–	–	–	–	–	–	–	–	–
